The source of these data is patent US10006080B2, “High-selectivity contact activation inhibitor based on infestin-4” (OBSCHESTVO S OGRANICHENNOY OTVETSTVENNOSTYU …, priority 2013, dated 2018).

Experiment [1] concerns TF-initiated fibrin clot growth. In words: Thrombodynamics analyzer T-2, fibrin clot growth from immobilized TF in normal and hypocoagulant PFP (0.1 IU/ml heparin). Format: biochemical, human. To be noted: MutB 20 μM, CTI 15 μM; n=4. The method, then: The influence of contact activation inhibitors on coagulation dynamics can be shown on the example of fibrin clot growth from the surface with immobilized TF. The dynamics of fibrin clot growth from the activator can be characterized by the following parameters: delay of clot formation after the contact of plasma with the tissue factor—lag time (Tlag, min); average clot growth velocity within 2-6 minutes after the start of coagulation—initial velocity (Vin, μm/min); and average clot growth velocity within 15-25 minutes after the start of coagulation—stationary velocity (Vst, μm/min) (Balandina et al. 2011, Biophys. J. 101:1816-1824; Dashkevich et at 2012, Biophys. J. 103:2233-2240). The mentioned parameters allow determining the state of blood coagulation of the subjects from whom the test samples were obtained («Practical coagulology», M A Panteleev, S A Vasilyev, E I Sinauridze and co-authors, ed. by A I Vorobyov. Moscow, publishing house «Practical medicine», 2011, 192 pages., ISBN: 978-5-98811-165-8). […]

The test system of experiment [2] is contact-activated coagulation. Put plainly: APTT test in platelet free plasma of a healthy donor (kaolin-cephalin activation). Format: biochemical, human. The following applies: for concentration at which the APTT increases nearly four-fold / concentration leading to 2.5-fold increase of APTT: normal plasma. The method, then: The assessment of activity of the polypeptide comprising the sequence of an infestin-4 mutant MutB by its inhibition of the contact-activated coagulation shall be considered further with a reference to FIG. 1. Native infestin-4 and mutants MutB and Mut15 were added into 3 separate samples of platelet free plasma (PFP) of a healthy donor, with subsequent measuring time of contact-activated clotting in the APTT test.
Blood plasma from healthy donors was processed according to standard protocols of blood collection for coagulation assays (Collection, Transport, and Processing of Blood Specimens for Testing Plasma-Based Coagulation Assays and Molecular Hemostasis Assays; Approved Guideline Fifth Edition by Clinical and Laboratory Standards Institute (CLSI) H21-A5 Vol. 28 No. 5). 0.38% sodium citrate was added into blood to block the calcium ions.
The APTT test was administered using the reagent kits “Coagulo-test” (Scientific-production association Renam, Moscow, Russia) and different concentrations of the following contact activation inhibitors: native infestin-4, MutB, and Mut15. To do that, 50 microliters of blood plasma from a healthy donor were mixed with 5.6 microliters of a 10× solution of different inhibitor concentrations and incubated for 15 minutes at 37° C. Then, according to the “Coagulo-test” manual, 25 microliters of the mixture were transferred into the cuvette of the coagulometer Helena-C2, with addition of 25 microliters of kaolin-cephalin mixture activating fXII in blood plasma. After incubation at 37° C. for 3 minutes, 25 microliters of the calcium chloride solution in the initial concentration of 25 mM was added, and the time of fibrin clot formation in the coagulometer cuvette was determined photometrically.
APTT dependences on concentrations of native infestin-4, MutB and Mut15 obtained in the same way as in Example 1, are shown on FIG. 1.

Regarding “MutB: polypeptide comprising the sequence of infestin-4 mutant MutB (SEQ ID NO: 1), inhibition loop TRNFVA; high-selectivity fXIIa inhibitor (EVRNPCACTRNFVAVCGSDGKTYGNPCMLNCAAQTKVPGLKLVHEGRCQRSNVEQF; Infestin-4 mutant MutB)”, the “influence on the difference of fibrin clot growth dynamics between hypocoagulant and normal plasma” value in experiment [1] was “does not have any influence”. In addition, the APTT in experiment [2] (10 μM inhibitor in PFP, 45 sec without inhibitor) was found to be 120 s. Also, in experiment [2] (APTT dose-dependence), the “activity in blood plasma in comparison to Mut15” value is listed as “nearly twofold”. The “activity in blood plasma in comparison with Mut15 and native infestin-4” value in experiment [2] (APTT dose-dependence, FIG. 1) is given as “increased activity”. Besides, in experiment [2], the “concentration at which the APTT increases nearly four-fold” value stood at 20 µM and the “concentration leading to 2.5-fold increase of APTT” value was determined as 10 µM.

B1: corn trypsin inhibitor (other, UniProt P01088 29-138, looked up)
chain: SAGTSCVPGWAIPHNPLPSCRWYVTSRTCGIGPRLPWPELKRRCCRELADIPAYCRCTALSILMDGAIPPGPDAQLEGRLEDLPGCPREVQRGFAATLVTEAECNLATIS
notes: Isolated from corn; also called CTI
B1: in experiment [1], the “influence on the difference of fibrin clot growth dynamics between hypocoagulant and normal plasma” value is listed as “does not have any influence”. In experiment [2], the “concentration at which the APTT increases nearly four-fold” value worked out at 15 µM and the “concentration leading to 2.5-fold increase of APTT” value worked out at 5 µM.
